Assays:
GBM PDOs = experiment: 72-hour drug treatment of GBM patient derived organoids (PDOs) in basket arrays; assay type: cell-based; settings: 72-hour treatment
Procedure: The basket arrays were used to deploy rapid single cell derived sphere and organoid assays to assess tumor cell viability, tumor invasion, terminal differentiation and resistance to therapy for cancer drug discovery and drug validation. […] PDOs were treated for 72-hours with standard chemotherapy (TMZ) and/or molecularly targeted agents, targeting mTOR, PI3K, BMI1, EGFR, and DDR, among others. Following treatments, the entire 4D printed basket arrays were evolved, with a 10-min heating step at 50° C., to their programmable cassette size to directly perform histological and IHC validation on the same day, and with the convenience of maintaining the same tissue plate arrangement. The concentrations inhibiting viability by 50% (GI50), real time activated caspase 3 for detection of apoptotic cells and GBM tumor cell invasion in live intact organoid cells were less impacted by standard TMZ than targeted therapies.

U87 spheres = settings: read-out: EC50 (median dose); GBM cell viability
Description: FIG. 15A illustrates the results of the cell titer glo assay that utilizes ATP levels and was used to determine GBM viability in the presence of component biomaterials. FIGS. 15B and 15C are low-power images of bright fields of spheres cultured for one week in the presence of the indicated chemicals and concentrations. The insets are higher power (20×) magnification of the 5× images.

[1] = live intact organoid cells, TMZ compared with targeted therapies

EC50 (U87 spheres) [µM] | Molecule | EGFR expression in organoid cells (GBM PDOs) | GBM tumor cell invasion (GBM PDOs; [1]) | concentrations inhibiting viability by 50% (GI50) (GBM PDOs; [1]) | real time activated caspase 3 for detection of apoptotic cells (GBM PDOs; [1])
– | Cn1nnc2c(C(N)=O)ncn2c1=O [TMZ] | not affected | less impacted | less impacted | less impacted
7.2 | poly (Ethylene glycol) diacrylate 250 [PEGDA250] | – | – | – | –
